Source: patent US20260193219A1, “TRIAZINE DERIVATIVES FOR TREATING DISEASES RELATING TO NEUROTROPHINS” (AlzeCure Pharma AB, priority 2020, published 2026)

Assays:
C57/Bl6 mice = test: Passive avoidance task in scopolamine-treated mice; assay type: in vivo; conditions: mice treated with scopolamine 0.3 mg/kg s.c.; compound single s.c. administration 60 min prior to training, different doses
Protocol: The passive avoidance (PA) is an aversive learning task based on classical (Pavlovian) fear conditioning that allows for analysis of both facilitation and impairment of memory function by adjusting the unconditioned stimulus, i.e. the electrical foot shock. Commonly a cognitive-impairing agent is administered to the animals to mimic the neurochemical disturbances present in various cognitive disorders e.g. cholinergic (scopolamine) and glutamatergic (MK-801) deficits.
Prior to testing, the animals are brought to the experimental room where they were allowed to habituate for 60 min. The test is conducted using a modified shuttle box with two communicating compartments of equal size with a small sliding door built into the separating wall and a stainless-steel bar floor. One of the compartments is not illuminated and thus black whereas the other compartment (the light one) is illuminated by an electric bulb, installed on the top of a plexiglass cover. The PA training is conducted in a single session. […] Latency to cross over into the dark compartment (training latency) is recorded. […] The latency to cross over into the dark compartment with all four feet is measured (retention latency) as well as time in bright compartment and a number of other relevant parameters (e.g. number of visits in the dark compartment). […]

C57/B16 mice = test: Forced Swim Test; assay type: in vivo; conditions: 1 mg/kg single s.c. administration 30 min prior to FST on day 2
Protocol: The Forced Swim Test (FST) is a commonly used test in rodents to assess depression-like behaviour (Porsolt et al., Nature, 1977, 266, 730-732). The model measures a learned helplessness response and has shown to have predictive validity for clinical antidepressants, e.g. SSRIs.
The mouse version consists of a vertical glass cylinder (25 cm high, 13 cm in diameter) filled with tap water up to 16 cm in height (25±0.5° C.). This means that the animal cannot escape (climb out) nor stand on its tail or hindlimbs. After a certain time the animal realize that it cannot get out and will stop struggling to get out, and instead become immobile and float.
The animal is placed inside the cylinder and allowed two swimming sessions: a 10 min pre-test (on day 1), 24 h later (day 2) a second 6 min test is conducted. The total duration of immobility and latency to the first immobility are recorded during the second 6 min test. Immobility is defined as floating passively in an upright position in the water, with only small movements necessary to keep the head above the water surface. Animals are then gently removed from water and dried.
Vehicle (20% DMSO in 0.1M PBS) or 1 mg/kg of the compound of Example 1 were administered to C57/B16 mice as a single s.c. administration 30 min prior to FST on day 2. As comparator, fluoxetine is commonly used a dose of 20 mg/kg. […]

[1] = Human liver microsomal stability; assay type: in vitro ADME; conditions: human liver microsomes 0.5 mg/mL, 3 μM compound, NADPH, 37° C.
Protocol: A 10 mM stock solution (in DMSO) was prepared for each compound. From the intermediate stock solution of 2 mM, a working solution of 0.5 mM was prepared by diluting the compound in Acetonitrile:water (50:50). The compound (1.8 μL of working solution) was spiked in 0.1 M potassium phosphate buffer (260.7 μL), pH 7.4 at a concentration of 3 μM (0.1% DMSO). Following this, human liver microsomes (pooled, Invitrogen, #HMMCPL) (7.5 μL; final protein conc. 0.5 mg/mL) were added. The aforementioned sample was incubated at 37° C. for 5 min. Subsequently, 30 μL of 10 mM NADPH prepared in 0.1 M potassium phosphate buffer was added (as a co-factor) to initiate the reaction. The samples were then incubated at 37° C. for 0, 20, 40, 60 and 120 min.
At each time point (0, 20, 40, 60 and 120 min), 40 μL of the samples were withdrawn and reactions were stopped using 360 μL chilled acetonitrile or methanol containing suitable internal standard (Carbamazepine). The samples were centrifuged and the supernatants was analyzed in duplicate by LC-MS/MS. The percent compound remaining at each time point was calculated with respect to that of the 0 min sample. Control samples were run without NADPH for initial and final time point and blank samples was prepared using DMSO (without the test compound).
For comparison, the experiment was also performed with known Trk receptor signalling modulator 1-methyl-3-[3-methyl-4-(4-trifluoromethanesulfonylphenoxy)phenyl]-1,3,5-triazinane-2,4,6-trione) (ponazuril). Ponazuril is metabolized very slowly in vivo and this prolonged exposure creates an increased risk of side effects if the compound is administered systemically. This causes significant challenges to the development of the compound as a systemic drug.

TrkB = target: T1, TrkB (Homo sapiens, UniProt Q16620); test: In vitro Trk receptor modulation assay (Enzyme Fragment Complementation), U2OS cells over-expressing TrkB; assay type: cell-based; conditions: compound pre-mixed with ligand (NGF), final 10 ng/mL, 3 hours, modulator mode
T1 construct: expressed in transfected cells; host or cells: U2OS
T1 sequence (Q16620 32-822): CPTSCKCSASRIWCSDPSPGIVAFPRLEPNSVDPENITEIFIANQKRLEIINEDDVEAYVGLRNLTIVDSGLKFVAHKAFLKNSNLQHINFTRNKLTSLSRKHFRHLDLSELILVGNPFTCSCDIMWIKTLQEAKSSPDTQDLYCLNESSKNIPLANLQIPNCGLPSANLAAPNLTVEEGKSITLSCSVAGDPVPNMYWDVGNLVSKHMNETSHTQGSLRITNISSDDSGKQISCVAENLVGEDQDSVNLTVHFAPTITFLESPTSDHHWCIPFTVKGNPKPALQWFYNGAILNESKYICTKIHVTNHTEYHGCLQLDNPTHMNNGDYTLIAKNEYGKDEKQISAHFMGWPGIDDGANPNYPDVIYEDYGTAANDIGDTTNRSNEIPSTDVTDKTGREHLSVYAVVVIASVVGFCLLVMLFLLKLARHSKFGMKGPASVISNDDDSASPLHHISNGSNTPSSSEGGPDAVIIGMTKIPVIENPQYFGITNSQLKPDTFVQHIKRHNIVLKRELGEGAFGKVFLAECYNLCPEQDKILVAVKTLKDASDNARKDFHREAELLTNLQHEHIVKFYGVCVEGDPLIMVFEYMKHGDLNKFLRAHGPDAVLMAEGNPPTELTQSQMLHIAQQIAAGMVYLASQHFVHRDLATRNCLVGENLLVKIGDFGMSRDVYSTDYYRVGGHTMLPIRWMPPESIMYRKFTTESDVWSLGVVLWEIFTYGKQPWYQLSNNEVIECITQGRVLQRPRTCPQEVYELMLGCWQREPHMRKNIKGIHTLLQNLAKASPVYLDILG
Description: (§1) A high throughput cell-based screen was used to identify positive modulators of TrkA and TrkB. The screen involves the use of cell-based assay overexpressing TrkA, or TrkB. The purpose of the assay is to identify compounds that modulate neurotrophin signalling (Forsell et al 2012). The assay can be used in inhibitor mode using a high concentration of ligand, in modulator mode using an intermediate concentration and in agonist mode using a low concentration of ligand.
(§2) The assay uses Enzyme Fragment Complementation (EFC) technique, which is a proximity-based assay. Briefly, cells used in this assay over-express two fusion proteins, i.e. the receptor, which can be one of TrkA or TrkB fused to a small peptide of beta-galactosidase and an adaptor protein, i.e. SHC1 (or any other Trk-adaptor protein) fused to the major part of beta-galactosidase. […] The proximity between the small activating peptide on the receptor and the major part of beta-galactosidase on the adaptor protein leads to an active beta-galactosidase enzyme. The activation of the receptor is quantified by measuring the amount of active beta-galactosidase by its conversion of a non-luminescent substrate into a luminescent product.
(§3) U2OS-cells, over-expressing TrkA or TrkB, were plated in 96- or 384-well plates and incubated overnight. On the following day, test compound was pre-mixed with ligand (NGF) and the ligand-compound mixture is then added to the cells to yield a final ligand concentration of 10 ng/mL. After 3 hours of incubation at room temperature, the incubation is stopped by the addition of a beta-galactosidase substrate mixture containing detergents. The substrate mixture is incubated for 60 minutes at ambient temperature. The luminescence is thereafter read by the use of a plate reader.

TrkA = target: T2, TrkA (Homo sapiens, UniProt P04629); test: In vitro Trk receptor modulation assay (Enzyme Fragment Complementation), U2OS cells over-expressing TrkA; assay type: cell-based; conditions: compound pre-mixed with ligand (NGF), final 10 ng/mL, 3 hours, modulator mode
T2 construct: expressed in transfected cells; host or cells: U2OS
T2 sequence (P04629 33-796): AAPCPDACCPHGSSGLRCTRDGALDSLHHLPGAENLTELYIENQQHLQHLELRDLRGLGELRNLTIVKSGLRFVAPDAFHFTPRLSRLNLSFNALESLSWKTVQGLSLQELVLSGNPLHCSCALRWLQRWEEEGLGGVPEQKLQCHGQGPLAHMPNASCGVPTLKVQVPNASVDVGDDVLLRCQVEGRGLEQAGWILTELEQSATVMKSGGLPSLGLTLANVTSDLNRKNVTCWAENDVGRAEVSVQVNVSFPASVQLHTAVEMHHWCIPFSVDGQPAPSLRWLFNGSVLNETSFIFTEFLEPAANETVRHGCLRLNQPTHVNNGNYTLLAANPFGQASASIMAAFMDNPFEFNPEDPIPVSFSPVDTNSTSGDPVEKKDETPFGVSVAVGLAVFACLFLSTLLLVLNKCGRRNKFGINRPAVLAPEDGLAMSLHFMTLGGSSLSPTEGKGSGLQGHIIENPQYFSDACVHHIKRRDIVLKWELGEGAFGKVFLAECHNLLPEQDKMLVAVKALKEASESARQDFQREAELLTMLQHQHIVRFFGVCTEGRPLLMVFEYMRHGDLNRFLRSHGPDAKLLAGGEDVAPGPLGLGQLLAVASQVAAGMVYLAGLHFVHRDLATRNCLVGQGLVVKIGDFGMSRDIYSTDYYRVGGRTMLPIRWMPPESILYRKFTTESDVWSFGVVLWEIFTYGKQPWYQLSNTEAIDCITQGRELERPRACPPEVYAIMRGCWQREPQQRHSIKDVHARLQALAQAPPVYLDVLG
Description: as §1, §2, §3

% of parent compound metabolized after 120 min [1]	EC50 (TrkB)	EC50 (TrkA)	Structure (SMILES)	cognitive function, retention latency within the bright area (passive avoidance) (C57/Bl6 mice)	time spent immobile (Forced Swim Test) compared to vehicle control (C57/B16 mice)
26.8%	150 nM	120 nM	Cc1cccc(-n2c(=O)[nH]c(=O)n(-c3ccc(Oc4ccccc4)c(C)c3)c2=O)c1 [Example 1, 1-(3-methyl-4-phenoxyphenyl)-3-(3-methylphenyl)-1,3,5-triazinane-2,4,6-trione]	improves cognitive function	decreased time spent immobile
82.0%	310 nM	330 nM	COCc1cc(-n2c(=O)[nH]c(=O)n(-c3cccc(C)c3)c2=O)ccc1Oc1ccccc1 [Example 3, 1-[3-(methoxymethyl)-4-phenoxyphenyl]-3-(3-methylphenyl)-1,3,5-triazinane-2,4,6-trione]	improves cognitive function	–
99.8%	320 nM	280 nM	Cc1cccc(-n2c(=O)[nH]c(=O)n(-c3ccc(Oc4ccccc4)c(OCC(=O)N4CCCCC4)c3)c2=O)c1 [Example 10, 1-(3-methylphenyl)-3-{3-[2-oxo-2-(piperidin-1-yl)ethoxy]-4-phenoxyphenyl}-1,3,5-triazinane-2,4,6-trione]	–	–
13.3%	260 nM	430 nM	COCc1cccc(-n2c(=O)[nH]c(=O)n(-c3ccc(Oc4ccccc4)c(C)c3)c2=O)c1 [Example 2, 1-[3-(methoxymethyl)phenyl]-3-(3-methyl-4-phenoxyphenyl)-1,3,5-triazinane-2,4,6-trione]	–	–
